Data from PMC12587552, “A nitrogen-containing diphyllin derivative C156-P1 exhibited broad-spectrum antiviral activity against Flaviviridae viruses by preventing endosomal acidification” (Antimicrobial Agents and Chemotherapy, 2025).
Like-named read-outs stand apart in the source and are kept apart here.

What was measured:
[1] = tested on: endosomal acidification in A549 cells; experiment: Endosomal acidification, LysoSensor DND-189 flow cytometry; format: cell-based, human; details: A549 cells pretreated 12 h; C156-P1 100 nM or 1 µM, Baf-A1 100 nM
[2] = target: V-ATPase (Homo sapiens, UniProt Q9Y487); experiment: ATPase activity assay on lysate of treated cells; format: cell-based; details: A549 cells treated 24 h; C156-P1 100 nM or 1000 nM, PHY34 100 nM, Baf-A1 100 nM; 2 µg total cell protein
[3] = tested on: DENV-2
[4] = in vitro; details: human
[5] = tested on: DENV-2; experiment: microbe, parasite or virus in culture; details: Dengue virus, DENV2, A549, 48 h, read-out: EC50 against DENV-2
[6] = tested on: other Flaviviridae viruses; details: cited from earlier work
[7] = tested on: ATP6V0A2; experiment: ATP6V0A2 mRNA level by RT-qPCR; format: cell-based, human; details: A549 cells, 100 nM, 48 h
[8] = tested on: ZIKV; set-up: method as in PMID 29033372, PMID 28694387; details: cited from earlier work
[9] = tested on: ZIKV; details: cited from earlier work
[10] = tested on: DENV-2; set-up: method as in PMID 30125275; details: read-out: EC50 against DENV-2 infection; cited from earlier work

V-ATPase, sequence (Q9Y487 whole entry, looked up): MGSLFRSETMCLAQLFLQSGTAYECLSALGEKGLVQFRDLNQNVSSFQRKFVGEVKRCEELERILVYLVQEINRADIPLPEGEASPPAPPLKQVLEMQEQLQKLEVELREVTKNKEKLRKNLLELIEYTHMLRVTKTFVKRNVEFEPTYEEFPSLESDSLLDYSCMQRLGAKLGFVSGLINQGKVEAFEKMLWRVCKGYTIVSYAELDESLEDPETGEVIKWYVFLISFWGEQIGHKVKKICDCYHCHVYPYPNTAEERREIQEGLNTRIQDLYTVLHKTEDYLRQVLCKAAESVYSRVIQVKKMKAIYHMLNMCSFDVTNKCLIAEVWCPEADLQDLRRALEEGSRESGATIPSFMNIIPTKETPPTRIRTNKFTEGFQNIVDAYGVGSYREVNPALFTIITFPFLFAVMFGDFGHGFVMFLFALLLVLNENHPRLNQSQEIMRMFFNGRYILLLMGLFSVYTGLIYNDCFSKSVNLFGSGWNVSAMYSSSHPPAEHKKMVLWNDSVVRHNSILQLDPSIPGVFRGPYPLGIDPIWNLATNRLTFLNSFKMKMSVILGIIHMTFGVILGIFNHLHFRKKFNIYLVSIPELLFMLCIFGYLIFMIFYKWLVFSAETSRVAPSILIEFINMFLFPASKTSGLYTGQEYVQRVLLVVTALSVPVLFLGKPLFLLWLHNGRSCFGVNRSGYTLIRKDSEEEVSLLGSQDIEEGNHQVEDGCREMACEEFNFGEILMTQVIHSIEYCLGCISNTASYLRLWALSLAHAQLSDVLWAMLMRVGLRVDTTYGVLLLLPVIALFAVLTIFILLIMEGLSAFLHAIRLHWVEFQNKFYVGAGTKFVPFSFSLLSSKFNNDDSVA

CO/C1=C\C(C)=C\[C@@H](C)[C@@H](O)[C@@H](C)C/C(C)=C/C=C/[C@H](OC)[C@@H]([C@@H](C)[C@@H](O)[C@H](C)[C@@]2(O)C[C@@H](O)[C@H](C)[C@@H](C(C)C)O2)OC1=O [Baf-A1, bafilomycin A1]
Endosomal acidification (FITC intensity of LysoSensor DND-189) [1]: shifted the peak of FITC leftward
V-ATPase activity [2]: significantly reduced V-ATPase activity

COc1cc2c(O)c3c(c(-c4ccc5c(c4)OCO5)c2cc1OC)C(=O)OC3 [DP, diphyllin]
SI (ratio of CC50 to EC50) ([3]; A549 cells, DENV-2): 39.98
CC50 [4]: 16000 nM
EC50 [5]: 401 nM

COc1cc(N[C@H](C(=O)c2c[nH]c3ccc(OC(F)(F)F)cc23)c2ccc(Cl)cc2OC)cc(S(C)(=O)=O)c1 [JNJ-1802]
Inhibitory effects against other Flaviviridae viruses [6]: lacks inhibitory effects

COc1cc2c(O[C@@H]3O[C@H](CO)[C@@H]4OC(C)(C)O[C@@H]4[C@H]3O)c3c(c(-c4ccc5c(c4)OCO5)c2cc1OC)C(=O)OC3 [PHY34, reference compound]
Endosomal acidification (FITC intensity of LysoSensor DND-189) [1]: inhibited endosomal acidification
V-ATPase activity [2]: significantly reduced V-ATPase activity
ATP6V0A2 mRNA expression [7]: decrease in ATP6V0A2 mRNA expression
DENV-2 infection (NS3 protein, Western blot) ([3]; A549 cells, MOI = 2, 48 h, indicated concentrations): inhibited endosomal acidification and DENV-2 infection in a dose-dependent manner

COc1cc2c(O[C@@H]3O[C@H](C)[C@@H](O)[C@H](O)[C@H]3O)c3c(c(-c4ccc5c(c4)OCO5)c2cc1OC)C(=O)OC3 [PTA, patentiflorin A, reference compound]
SI (ratio of CC50 to EC50) [3]: 5.12
CC50 [4]: 195 nM
EC50 [5]: 38.1 nM

CCN(CC)CCCC(C)Nc1ccnc2cc(Cl)ccc12 (centres unmarked) [chloroquine]
Inhibitory concentration (dose) required in mice against ZIKV [8]: 100 mg/kg
Inhibitory concentrations necessary for ZIKV infection in cell culture [9]: micromolar range

CCN(CCO)CCCC(C)Nc1ccnc2cc(Cl)ccc12 (centres unmarked) [hydroxychloroquine]
Inhibitory concentration (dose) required in mice against ZIKV [8]: 40 mg/kg

O=C(Nc1ccc([N+](=O)[O-])cc1Cl)c1cc(Cl)ccc1O [niclosamide]
EC50 [10]: ~10000 nM
